The record followed here is publication PMC11792066, “Development of benzofuran-derived sulfamates as dual aromatase-steroid sulfatase inhibitors (DASIs): design, synthesis and biological evaluation” (RSC Medicinal Chemistry, 2025).

Molecules are shown by their SMILES. “And” between values parts separate entries of the source, which are not always exact repeats. Equal entries are not always repeated. Where two headings read alike, the source gives them in different places.

In one test the target is T1, aromatase (CYP19A1) (Homo sapiens, UniProt P11511).
T1 construct: host or cells: JEG-3 cells
T1 sequence (P11511 1-503): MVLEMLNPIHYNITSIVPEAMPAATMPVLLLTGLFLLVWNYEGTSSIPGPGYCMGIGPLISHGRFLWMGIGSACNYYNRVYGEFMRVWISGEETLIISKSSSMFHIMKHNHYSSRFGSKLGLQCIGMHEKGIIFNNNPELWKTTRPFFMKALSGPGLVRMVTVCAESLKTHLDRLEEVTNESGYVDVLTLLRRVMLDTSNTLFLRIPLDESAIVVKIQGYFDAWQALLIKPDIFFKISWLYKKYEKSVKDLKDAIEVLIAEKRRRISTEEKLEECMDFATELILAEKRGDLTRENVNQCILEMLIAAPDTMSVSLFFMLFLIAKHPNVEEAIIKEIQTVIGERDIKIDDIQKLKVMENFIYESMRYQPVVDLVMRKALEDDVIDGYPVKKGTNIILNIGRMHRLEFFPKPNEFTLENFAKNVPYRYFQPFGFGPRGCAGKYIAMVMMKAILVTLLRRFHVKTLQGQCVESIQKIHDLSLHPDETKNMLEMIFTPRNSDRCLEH
The experiment in a line: Aromatase activity assay, modified tritiated water assay in JEG-3 cells. It is filed as cell-based. The following applies: 1 h incubation, triplicate. The procedure: Seven compounds including the two carbamate side products were investigated for their aromatase inhibitory activity at 10 nM using the previously reported modified tritiated water assay.[20]
(§1) JEG-3 cells (ATCC) were cultured in Eagle's minimal essential medium (EMEM) supplemented with 10% fetal calf serum (FCS). The cells were maintained at 37 °C in a humidified incubator with 5% CO2. Then, the cells were cultured to approximately 80% confluence before any treatments were applied.
The aromatase activity was measured using a modified tritiated water assay. The JEG-3 cells were cultured in six-well plates in EMEM until reaching 80% confluence. The substrate androst-4-ene-3,17-dione [1β-^3H] was added to each well in a serum-free medium. In the presence and absence of dual inhibitors (at concentrations ranging from 0.001 to 10 nM), the cells were incubated at 37 °C for 1 hour. The reaction was stopped by placing the plates on ice for 5 minutes. The medium (500 μL) was obtained, vortexed with 2% dextran-treated charcoal in PBS, and centrifuged at 4000 rpm. [^3H]H2O in the supernatant was quantified using scintillation counting. The aromatase activity was normalized to protein concentration, determined by the Pierce BCA assay kit (Thermo Fisher Scientific), and expressed as pmol of product per mg of protein per hour.

Another test addresses T2, steroid sulfatase (STS) (Homo sapiens, UniProt P08842).
T2 construct: lysates from JEG-3 cells, known to have high endogenous STS activity; host or cells: JEG-3 cell lysate (supernatant after centrifugation)
T2 sequence (P08842 22-583): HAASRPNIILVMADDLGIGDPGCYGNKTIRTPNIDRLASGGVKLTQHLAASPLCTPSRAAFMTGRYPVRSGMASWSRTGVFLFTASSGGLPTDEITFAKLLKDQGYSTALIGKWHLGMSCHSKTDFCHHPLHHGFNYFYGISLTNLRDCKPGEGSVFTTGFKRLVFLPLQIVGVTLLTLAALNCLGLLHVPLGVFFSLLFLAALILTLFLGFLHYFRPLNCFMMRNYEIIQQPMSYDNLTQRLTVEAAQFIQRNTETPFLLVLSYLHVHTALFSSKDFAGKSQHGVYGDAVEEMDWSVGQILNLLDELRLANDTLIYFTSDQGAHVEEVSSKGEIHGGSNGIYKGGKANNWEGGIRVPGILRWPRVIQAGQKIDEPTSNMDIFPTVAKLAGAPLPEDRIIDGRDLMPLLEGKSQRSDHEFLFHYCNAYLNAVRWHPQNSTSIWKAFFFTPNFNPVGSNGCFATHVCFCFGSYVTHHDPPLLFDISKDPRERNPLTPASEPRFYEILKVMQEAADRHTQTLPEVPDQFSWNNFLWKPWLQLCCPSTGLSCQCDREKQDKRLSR
The experiment in a line: Steroid sulfatase activity assay, cell-free JEG-3 lysate, [3H]oestrone sulfate substrate. The note with it: for IC50: 20 μM E1S, 37 °C, 1 h, triplicate. It is filed as biochemical. On the procedure: as §1
STS activity was measured using an in vitro, cell-free assay. Briefly, lysates from JEG-3 cells, known to have high endogenous STS activity, were prepared by lysing the cells with a buffer (50 mM Tris-HCl, pH 7.4, and 1 mM EDTA). After centrifugation, the supernatant was collected and protein concentrations were determined using a BCA assay kit.
For the steroid sulfatase assay, 125 μg of JEG-3 lysate was incubated with the substrate [^3H]oestrone sulfate (E1S, 4 × 10^5 dpm) diluted to a final concentration of 20 μM using non-radioactive E1S. The mixture was incubated in the presence of different concentrations of inhibitors (ranging from 10^−11 M to 10^−5 M) at 37 °C for 1 hour. After incubation, the reaction was stopped by placing the tubes on ice, and the estrone product formed was separated from the substrate by extraction with toluene. [^14C]oestrone was added to the organic phase as an internal standard to monitor recovery and procedural losses.
The organic phase was subjected to liquid scintillation counting to measure both ^3H and ^14C. The amount of E1S hydrolysed was calculated from the ^3H counts, corrected for recovery using the ^14C standard, and converted into molar concentrations of hydrolysed product. The inhibitory activity of test compounds was expressed as the IC50 value, representing the concentration required to inhibit 50% of the STS activity.

Where [1] appears, read: JEG-3 cells, read-out: Arom IC50.

In the case of `NS(=O)(=O)Oc1ccc(C(c2cc3cc(Cl)ccc3o2)n2cncn2)cc1` (stereo not drawn) [8a, 4-((5-Chlorobenzofuran-2-yl)(1H-1,2,4-triazol-1-yl)methyl)phenyl sulfamate], the IC50 at aromatase (CYP19A1) (setting [1]) is over 0.01 µM. Further, the “STS inhibitory activity (in words)” value on steroid sulfatase (STS) is on record as “neither the triazole sulfamates (6, 7, 8a, 9, 10a) nor the triazole carbamates (8b, 10b) displayed STS inhibitory activity”.
For `NC(=O)Oc1ccc(C(c2cc3cc(Cl)ccc3o2)n2cncn2)cc1` (stereo not drawn) [8b], 0.0041 µM corresponded to half-maximal inhibition at aromatase (CYP19A1) (Arom IC50, JEG-3 cells) (IC50). Moreover, the “STS inhibitory activity (in words)” value on steroid sulfatase (STS) is on record as “neither the triazole sulfamates (6, 7, 8a, 9, 10a) nor the triazole carbamates (8b, 10b) displayed STS inhibitory activity”.
As to `N#Cc1ccc(C(c2cc3ccc(OS(N)(=O)=O)cc3o2)n2cncn2)cc1` (stereo not drawn) [10a, 2-((4-Cyanophenyl)(1H-1,2,4-triazol-1-yl)methyl)benzofuran-6-yl sulfamate], at aromatase (CYP19A1) (setting [1]), the IC50 is 0.00152 µM. Besides, the “STS inhibitory activity (in words)” value on steroid sulfatase (STS) is listed as “neither the triazole sulfamates (6, 7, 8a, 9, 10a) nor the triazole carbamates (8b, 10b) displayed STS inhibitory activity”.
`N#Cc1ccc(C(c2cc3ccc(OC(N)=O)cc3o2)n2cncn2)cc1` (stereo not drawn) [10b, 2-((4-Cyanophenyl)(1H-1,2,4-triazol-1-yl)methyl)benzofuran-6-yl carbamate] showed an IC50 at aromatase (CYP19A1) (Arom IC50, JEG-3 cells) of 0.00065 µM. In addition, the “STS inhibitory activity (in words)” value on steroid sulfatase (STS) is recorded as “neither the triazole sulfamates (6, 7, 8a, 9, 10a) nor the triazole carbamates (8b, 10b) displayed STS inhibitory activity”.
With `NS(=O)(=O)Oc1ccc2cc(C(=O)c3ccc(F)cc3)oc2c1` [18a, 2-(4-Fluorobenzoyl)benzofuran-6-yl sulfamate], the IC50 was over 1 µM on aromatase (CYP19A1) (setting [1]) and 0.74 µM against steroid sulfatase (STS).
On to `NS(=O)(=O)Oc1ccc2cc(C(=O)c3ccc(Cl)cc3)oc2c1` [18b, 2-(4-Chlorobenzoyl)benzofuran-6-yl sulfamate], for which the IC50 on aromatase (CYP19A1) (setting [1]) was over 1 µM; at steroid sulfatase (STS), 0.41 µM.
In the same order, the values of `NS(=O)(=O)Oc1ccc2cc(C(=O)c3ccc(Br)cc3)oc2c1` [18c, 2-(4-Bromobenzoyl)benzofuran-6-yl sulfamate] are over 1 µM and 0.51 µM.
In the same order, the values of `NS(=O)(=O)Oc1ccc2cc(C(=O)c3ccc(Cl)cc3Cl)oc2c1` [18d, 2-(2,4-Dichlorobenzoyl)benzofuran-6-yl sulfamate] are over 1 µM and 0.31 µM.
In the same order, the values of `COc1ccc(C(=O)c2cc3ccc(OS(N)(=O)=O)cc3o2)cc1` [18e, 2-(4-Methoxybenzoyl)benzofuran-6-yl sulfamate] are over 1 µM and 0.115 µM.
In the case of `N#Cc1ccc(C(=O)c2cc3ccc(OS(N)(=O)=O)cc3o2)cc1` [18f, 2-(4-Cyanobenzoyl)benzofuran-6-yl sulfamate], the figures for the IC50 on aromatase (CYP19A1) (setting [1]) and against steroid sulfatase (STS) were over 1 µM and 0.28 µM, respectively.
In the same order, the values of `Cc1c(C(=O)c2ccc(F)cc2)oc2cc(OS(N)(=O)=O)ccc12` [19a, 2-(4-Fluorobenzoyl)-3-methylbenzofuran-6-yl sulfamate] are 0.05 µM and 0.654 µM.
In the same order, the values of `Cc1c(C(=O)c2ccc(Cl)cc2)oc2cc(OS(N)(=O)=O)ccc12` [19b, 2-(4-Chlorobenzoyl)-3-methylbenzofuran-6-yl sulfamate] are 0.137 µM and 0.048 µM.
For the compound `Cc1c(C(=O)c2ccc(Br)cc2)oc2cc(OS(N)(=O)=O)ccc12` [19c, 2-(4-Bromobenzoyl)-3-methylbenzofuran-6-yl sulfamate], the values for the IC50 on aromatase (CYP19A1) (setting [1]) and on steroid sulfatase (STS) were 0.022 µM and 0.83 µM, respectively.
In the same order, the values of `Cc1c(C(=O)c2ccc(Cl)cc2Cl)oc2cc(OS(N)(=O)=O)ccc12` [19d, 2-(2,4-Dichlorobenzoyl)-3-methylbenzofuran-6-yl sulfamate] are 0.02 µM and 1.5 µM.
In the same order, the values of `COc1ccc(C(=O)c2oc3cc(OS(N)(=O)=O)ccc3c2C)cc1` [19e, 2-(4-Methoxybenzoyl)-3-methylbenzofuran-6-yl sulfamate] are 0.035 µM and 0.164 µM.
At steroid sulfatase (STS), `N#Cc1ccc(C(c2ccc(C#N)cc2)n2cncn2)cc1` [Letrozole, reference compound] had an IC50 of over 1 µM.
Take `NS(=O)(=O)Oc1ccc2c3c(c(=O)oc2c1)CCCCC3` [STX64, Irosustat, reference compound]: on aromatase (CYP19A1) (setting [1]), the IC50 is over 1 µM.
Consider `NS(=O)(=O)Oc1ccc2cc(C(c3ccc(Cl)cc3)n3cncn3)oc2c1` (stereo not drawn) [compound 6, 2-((4-Chlorophenyl)(1H-1,2,4-triazol-1-yl)methyl)benzofuran-6-yl sulfamate], for which the IC50 on aromatase (CYP19A1) (setting [1]) was determined as 0.0014 µM. Besides, the “STS inhibitory activity (in words)” value at steroid sulfatase (STS) is “neither the triazole sulfamates (6, 7, 8a, 9, 10a) nor the triazole carbamates (8b, 10b) displayed STS inhibitory activity”.
Take `NS(=O)(=O)Oc1ccc2oc(C(c3ccc(Cl)cc3)n3cncn3)cc2c1` (stereo not drawn) [compound 7, 2-((4-Chlorophenyl)(1H-1,2,4-triazol-1-yl)methyl)benzofuran-5-yl sulfamate]: the IC50 on aromatase (CYP19A1) (setting [1]) worked out at 0.00549 µM. In addition, the “STS inhibitory activity (in words)” value on steroid sulfatase (STS) is recorded as “neither the triazole sulfamates (6, 7, 8a, 9, 10a) nor the triazole carbamates (8b, 10b) displayed STS inhibitory activity”.
Consider `NS(=O)(=O)Oc1ccc2cc(C(c3ccc(F)cc3)n3cncn3)oc2c1` (stereo not drawn) [compound 9, 2-((4-Fluorophenyl)(1H-1,2,4-triazol-1-yl)methyl)benzofuran-6-yl sulfamate], for which, at aromatase (CYP19A1) (setting [1]), the half-inhibitory concentration (IC50) came out at 0.0084 µM. Further, the “STS inhibitory activity (in words)” value at steroid sulfatase (STS) is reported as “neither the triazole sulfamates (6, 7, 8a, 9, 10a) nor the triazole carbamates (8b, 10b) displayed STS inhibitory activity”.
For the compound `NC(=O)Oc1ccc2cc(C(=O)c3ccc(Cl)cc3)oc2c1` [compound 20, 2-(4-Chlorobenzoyl)benzofuran-6-yl carbamate], the IC50 was at least 1 µM at aromatase (CYP19A1) (setting [1]); ≥ 1 µM and 1.22 µM on steroid sulfatase (STS).
Consider `Cc1c(C(=O)c2ccc(Cl)cc2)oc2cc(OC(N)=O)ccc12` [compound 21, 2-(4-Chlorobenzoyl)-3-methylbenzofuran-6-yl carbamate], for which the IC50 at aromatase (CYP19A1) (setting [1]) was at least 1 µM; against steroid sulfatase (STS) it was ≥ 1 µM and 0.98 µM.
